Where two headings read alike, the source gives them in different places.
Key:
[1] = target: HCV RNA-dependent RNA polymerase (NS5B) (Hepatitis C virus genotype 1b (isolate BK) (HCV), UniProt P26663); test: RNA-Dependent RNA HCV NS5B (polymerase) Assay and IC50 Determination; format: biochemical; settings: purified HCV NS5B polymerase, polyA:U16 substrate, 32P-UTP incorporation
Method in brief: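 Purified NS5B was incubated with 0.5 uM polyA:U16, 10 μM UTP plus ^32P-UTP in 50 mM Hepes-KOH pH 7.5, 5 mM MgCl2, 5 mM DTT, 2% glycerol and 0.01% Triton X-100. Inhibitor reactions ran 60 min at 37° C, and radiolabelled RNA product was quantified after filter capture. IC50 values were obtained from concentration series.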

[2] = system: HCV subgenomic RNA replicon in Huh-luc/neo-ET cells; test: HCV Replicon Assay and EC50 Determination; format: cell-based; settings: Hepatitis C virus, 72 hours, luciferase reporter activity
Method: HCV Replicon Assay and EC50 Determination.
HCV replicon assay is based on the luciferase reporter cell line (Huh-luc/neo-ET). This reporter cell line is a human liver carcinoma cell line (Huh-7) stably transfected with an autonomously replicating bicistronic HCV subgenomic RNA replicon (Lohmann et al., 1999, Science, 285, 110-113). Inhibition of HCV RNA replication was monitored through analysis of reporter luciferase activity. Briefly, HCV replicon cells were incubated with inhibitors for 72 hours at 37° C. After the incubation, duplicate plates were treated and incubated in parallel for assessment of cellular toxicity by XTT staining and anti-HCV activity by measurement of luciferase reporter activity. Either human interferon alpha 2B or ribavirin was used as a reference compound. EC50 values were determined using GraFit (Erithaus software) or Excel.
Table 2 presents EC50 data obtained using this HCV replicaon assay to test representative compounds. Data are presented as follows: “+++” means <0.1 μM; “++” means ≥0.1 μM and <1.0 μM; “+” means ≥1.0 μM.

Chain of HCV RNA-dependent RNA polymerase (NS5B) (P26663 2420-3010): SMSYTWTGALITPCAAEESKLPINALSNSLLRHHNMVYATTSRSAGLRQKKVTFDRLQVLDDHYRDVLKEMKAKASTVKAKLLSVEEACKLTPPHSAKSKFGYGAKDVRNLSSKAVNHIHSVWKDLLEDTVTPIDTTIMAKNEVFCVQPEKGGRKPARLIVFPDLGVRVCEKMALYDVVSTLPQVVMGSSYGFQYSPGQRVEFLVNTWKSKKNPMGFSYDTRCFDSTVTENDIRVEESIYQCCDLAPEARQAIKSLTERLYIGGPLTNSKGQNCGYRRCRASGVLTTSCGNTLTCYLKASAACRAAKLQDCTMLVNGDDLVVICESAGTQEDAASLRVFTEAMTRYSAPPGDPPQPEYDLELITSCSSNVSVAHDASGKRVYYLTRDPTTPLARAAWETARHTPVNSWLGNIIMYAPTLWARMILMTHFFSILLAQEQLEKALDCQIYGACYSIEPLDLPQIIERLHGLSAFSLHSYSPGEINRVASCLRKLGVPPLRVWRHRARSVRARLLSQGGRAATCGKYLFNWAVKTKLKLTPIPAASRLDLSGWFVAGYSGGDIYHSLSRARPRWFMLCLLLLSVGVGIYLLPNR

## CNC(=O)c1c(-c2ccc(F)cc2)oc2cc(N(CCOCCOCCOCCO)S(C)(=O)=O)c(C3CC3)cc12 [Compound 04-5, 5-Cyclopropyl-2-(4-fluorophenyl)-6-(N-(2-(2-(2-(2-hydroxyethoxy)-ethoxy)-ethoxy)-ethyl) Methylsulfonamido)-N-methylbenzofuran-3-carboxamide]
[1]; IC50 (μM)
  IC50: > 1 µM
[2]
  EC50: 100 to 1000 nM

## CNC(=O)c1c(-c2ccc(F)cc2)oc2cc(N(CCOCCOCc3ccc(F)c(C(=O)O)c3)S(C)(=O)=O)c(C3CC3)cc12 [Compound 17A-8A, 5-[2-(2-{[5-Cyclopropyl-2-(4-fluoro-phenyl)-3-methylcarbamoyl-benzofuran-6-yl]-methanesulfonyl-amino}-ethoxy)-ethoxymethyl]-2-fluoro-benzoic Acid]
[1]; read-out: IC50
  IC50: 0.1 to 1 µM
[2]
  EC50: < 100 nM

## CNC(=O)c1c(-c2ccc(F)cc2)oc2cc(N(CCOCCOCc3ccccc3C(=O)O)S(C)(=O)=O)c(C3CC3)cc12 [Compound 06-7A, 2-[2-(2-{[5-Cyclopropyl-2-(4-fluoro-phenyl)-3-methylcarbamoyl-benzofuran-6-yl]-methanesulfonyl-amino}-ethoxy)-ethoxymethyl]-benzoic Acid]
[1]; read-out: IC50
  IC50: 0.1 to 1 µM
[2]
  EC50: < 100 nM

## CNC(=O)c1c(-c2ccc(F)cc2)oc2cc(N(CCOCCOCCOC(C)C(=O)O)S(C)(=O)=O)c(C3CC3)cc12 (stereo not drawn) [Compound 23-6B, 2-{2-[2-(2-{[5-Cyclopropyl-2-(4-fluoro-phenyl)-3-methylcarbamoyl-benzofuran-6-yl]-methanesulfonyl-amino}-ethoxy)-ethoxy]-ethoxy}-propionic Acid]
[1]; read-out: IC50
  IC50: 0.1 to 1 µM
[2]
  EC50: < 100 nM

## CNC(=O)c1c(-c2ccc(F)cc2)oc2cc(N(CC(=O)NC(C)(C)C(=O)NCc3cccc(C(=O)C=C(O)C(=O)O)c3)S(C)(=O)=O)c(C3CC3)cc12 [Compound 09-14C, 4-(3-{[2-(2-{[5-Cyclopropyl-2-(4-fluoro-phenyl)-3-methylcarbamoyl-benzofuran-6-yl]-methanesulfonyl-amino}-acetylamino)-2-methyl-propionylamino]-methyl}-phenyl)-2-hydroxy-4-oxo-but-2-enoic Acid]
[1]; read-out: IC50
  IC50: > 1 µM
[2]
  EC50: 100 to 1000 nM

## CNC(=O)c1c(-c2ccc(F)cc2)oc2cc(N(CCCCCCCc3ccc(C(=O)O)cc3)S(C)(=O)=O)c(C3CC3)cc12 [Compound 13-8D, 4-(7-{[5-Cyclopropyl-2-(4-fluoro-phenyl)-3-methylcarbamoyl-benzofuran-6-yl]-methanesulfonyl-amino}-heptyl)-benzoic Acid]
[1]; read-out: IC50
  IC50: 0.1 to 1 µM
[2]
  EC50: < 100 nM

## CNC(=O)c1c(-c2ccc(F)cc2)oc2cc(N(CCCCOCCc3ccc(C(=O)O)cc3)S(C)(=O)=O)c(C3CC3)cc12 [Compound 13-8C, 4-(2-(4-(N-(5-cyclopropyl-2-(4-fluorophenyl)-3-(methylcarbamoyl)benzofuran-6-yl)-methylsulfonamido)butoxy)-ethyl)benzoic Acid]
[1]; read-out: IC50
  IC50: 0.1 to 1 µM
[2]
  EC50: < 100 nM

## CNC(=O)c1c(-c2ccc(F)cc2)oc2cc(N(CCOC(=O)CNC(=O)CCCC(=O)O)S(C)(=O)=O)c(C3CC3)cc12 [Compound 08-6, 4-[(2-{[5-Cyclopropyl-2-(4-fluoro-phenyl)-3-methylcarbamoyl-benzofuran-6-yl]-methanesulfonyl-amino}-ethoxycarbonylmethyl)-carbamoyl]-butyric Acid]
[1]; IC50 (μM)
  IC50: 0.1 to 1 µM
[2]
  EC50: 100 to 1000 nM

## CNC(=O)c1c(-c2ccc(F)cc2)oc2cc(N(CCOCCOCc3ccc(OC)c(C(=O)O)c3)S(C)(=O)=O)c(C3CC3)cc12 [Compound 17B-8, 5-[2-(2-{[5-Cyclopropyl-2-(4-fluoro-phenyl)-3-methylcarbamoyl-benzofuran-6-yl]-methanesulfonyl-amino}-ethoxy)-ethoxymethyl]-2-methoxy-benzoic Acid]
[1]; read-out: IC50
  IC50: 0.1 to 1 µM
[2]
  EC50: 100 to 1000 nM

## CNC(=O)c1c(-c2ccc(F)cc2)oc2cc(N(CCOCCOCc3ccc(C(=O)/C=C(\O)C(=O)O)cc3)S(C)(=O)=O)c(C3CC3)cc12 [Compound 02-10F, 4-{4-[2-(2-{[5-Cyclopropyl-2-(4-fluoro-phenyl)-3-methylcarbamoyl-benzofuran-6-yl]-methanesulfonyl-amino}-ethoxy)-ethoxymethyl]-phenyl}-2-hydroxy-4-oxo-but-2-enoic Acid]
[1]; read-out: IC50
  IC50: > 1 µM
[2]
  EC50: < 100 nM

## CNC(=O)c1c(-c2ccc(F)cc2)oc2cc(N(CCOCCOCCOCc3ccc(C(=O)O)cc3)S(C)(=O)=O)c(C3CC3)cc12 [Compound 06-7E, 4-{2-[2-(2-{[5-Cyclopropyl-2-(4-fluoro-phenyl)-3-methylcarbamoyl-benzofuran-6-yl]-methanesulfonyl-amino}-ethoxy)-ethoxy]-ethoxymethyl}-benzoic Acid]
[1]; read-out: IC50
  IC50: 0.1 to 1 µM

## CNC(=O)c1c(-c2ccc(F)cc2)oc2cc(N(CCOCCOCCOCCOCCOCc3ccc(C(=O)/C=C(\O)C(=O)O)cc3)S(C)(=O)=O)c(C3CC3)cc12 [Compound 02-10I, 4-{4-[2-(2-{2-[2-(2-{[5-Cyclopropyl-2-(4-fluoro-phenyl)-3-methylcarbamoyl-benzofuran-6-yl]-methanesulfonyl-amino}-ethoxy)-ethoxy]-ethoxy}-ethoxy)-ethoxymethyl]-phenyl}-2-hydroxy-4-oxo-but-2-enoic Acid]
[1]; read-out: IC50
  IC50: > 1 µM

## CCOC(=O)/C(O)=C/C(=O)c1ccc(COCCOCCOCCOCCN(c2cc3oc(-c4ccc(F)cc4)c(C(=O)NC)c3cc2C2CC2)S(C)(=O)=O)cc1 [Compound 02-9H, 4-[4-(2-{2-[2-(2-{[5-Cyclopropyl-2-(4-fluoro-phenyl)-3-methylcarbamoyl-benzofuran-6-yl]-methanesulfonyl-amino}-ethoxy)-ethoxy]-ethoxy}-ethoxymethyl)-phenyl]-2-hydroxy-4-oxo-but-2-enoic Acid Ethyl Ester]
[1]; read-out: IC50
  IC50: > 1 µM

## CNC(=O)c1c(-c2ccc(F)cc2)oc2cc(N(CC(=O)NCC(=O)NCc3cccc(C(C)=O)c3)S(C)(=O)=O)c(C3CC3)cc12 [Compound 30-6, 6-[({[(3-Acetyl-benzylcarbamoyl)-methyl]-carbamoyl}-methyl)-methanesulfonyl-amino]-5-cyclopropyl-2-(4-fluoro-phenyl)-benzofuran-3-carboxylic acid methylamide]
[1]; read-out: IC50
  IC50: > 1 µM

## CNC(=O)c1c(-c2ccc(F)cc2)oc2cc(N(CCOCCSC(C)=O)S(C)(=O)=O)c(C3CC3)cc12 [Compound 21-5, Thioacetic Acid S-[2-(2-{[5-cyclopropyl-2-(4-fluoro-phenyl)-3-methylcarbamoyl-benzofuran-6-yl]-methanesulfonyl-amino}-ethoxy)-ethyl] Ester]
[1]; read-out: IC50
  IC50: < 0.1 µM

## CCOC(=O)C(OCCOCCOCCN(c1cc2oc(-c3ccc(F)cc3)c(C(=O)NC)c2cc1C1CC1)S(C)(=O)=O)c1ccccc1 (stereo not drawn) [Compound 25-4, {2-[2-(2-{[5-Cyclopropyl-2-(4-fluoro-phenyl)-3-methylcarbamoyl-benzofuran-6-yl]-methanesulfonyl-amino}-ethoxy)-ethoxy]-ethoxy}-phenyl-acetic Acid Ethyl Ester]
[1]; read-out: IC50
  IC50: > 1 µM

## CNC(=O)c1c(-c2ccc(F)cc2)oc2cc(N(CCOCCOCCOCC(N)=O)S(C)(=O)=O)c(C3CC3)cc12 [Compound 23-7A, 6-({2-[2-(2-Carbamoylmethoxy-ethoxy)-ethoxy]-ethyl}-methanesulfonyl-amino)-5-cyclopropyl-2-(4-fluoro-phenyl)-benzofuran-3-carboxylic Acid Methylamide]
[1]; read-out: IC50
  IC50: 0.1 to 1 µM

From patent US10947210B2 (priority 2015, dated 2021)
